The target of data set [1] is T1, Interstitial collagenase (Homo sapiens, UniProt P03956).
T1 sequence (P03956 whole entry): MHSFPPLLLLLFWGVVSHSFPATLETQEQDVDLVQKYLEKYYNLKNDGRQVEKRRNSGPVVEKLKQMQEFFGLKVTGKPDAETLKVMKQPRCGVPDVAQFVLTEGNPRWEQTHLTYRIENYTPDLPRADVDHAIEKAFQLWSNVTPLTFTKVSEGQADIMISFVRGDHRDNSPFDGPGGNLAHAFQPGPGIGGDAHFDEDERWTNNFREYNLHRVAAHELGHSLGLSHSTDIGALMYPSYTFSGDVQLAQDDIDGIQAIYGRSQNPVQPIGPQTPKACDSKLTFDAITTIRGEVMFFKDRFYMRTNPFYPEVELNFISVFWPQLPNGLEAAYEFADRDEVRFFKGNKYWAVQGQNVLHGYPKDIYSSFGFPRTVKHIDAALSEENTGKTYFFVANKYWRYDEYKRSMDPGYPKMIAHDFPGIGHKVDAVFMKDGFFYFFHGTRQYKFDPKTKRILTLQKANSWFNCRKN
As to the kind of experiment: Inhibition of MMP-1 (unknown origin) using 7-(methoxycoumarin-4yl)acetyl-Pro-Leu-Gly-Leu-(N-3-[2,4-dinitrophenyl]- L-2,3-diamino-propionyl)-Ala-Arg-NH2 as fluorogenic substrate for 45 mins by fluorogenic analysis.

In data set [2] the target is T2, Neutrophil collagenase (Homo sapiens, UniProt P22894). The experiment in a line: Inhibition of MMP-8 (unknown origin) using Mca-Pro-Leu-Gly-Leu-Dpa-Ala-Arg-NH2 as substrate preincubated for 30 mins followed by substrate addition for 2 to 4 hrs by fluorimetric assay.
T2 sequence (P22894 whole entry): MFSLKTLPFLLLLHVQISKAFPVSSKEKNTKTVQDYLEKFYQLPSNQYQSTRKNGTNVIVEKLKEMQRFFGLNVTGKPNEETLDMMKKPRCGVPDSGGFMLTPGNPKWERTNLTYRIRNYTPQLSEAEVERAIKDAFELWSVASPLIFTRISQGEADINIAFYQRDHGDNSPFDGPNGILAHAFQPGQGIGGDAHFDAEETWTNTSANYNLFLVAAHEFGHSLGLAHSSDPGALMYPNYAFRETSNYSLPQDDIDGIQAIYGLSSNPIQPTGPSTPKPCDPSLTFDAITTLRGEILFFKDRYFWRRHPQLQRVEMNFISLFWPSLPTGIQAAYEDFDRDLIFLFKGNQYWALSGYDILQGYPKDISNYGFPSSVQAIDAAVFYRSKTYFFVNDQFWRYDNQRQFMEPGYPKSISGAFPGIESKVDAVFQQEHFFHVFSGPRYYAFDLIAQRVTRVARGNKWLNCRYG
Data set [3] deals with T3, Matrix metalloproteinase-9 (Homo sapiens, UniProt P14780). As to the kind of experiment: Inhibition of MMP-9 (unknown origin) using Mca-Pro-Leu-Gly-Leu-Dpa-Ala-Arg-NH2 as substrate preincubated for 30 mins followed by substrate addition for 2 to 4 hrs by fluorimetric assay.
T3 sequence (P14780 whole entry): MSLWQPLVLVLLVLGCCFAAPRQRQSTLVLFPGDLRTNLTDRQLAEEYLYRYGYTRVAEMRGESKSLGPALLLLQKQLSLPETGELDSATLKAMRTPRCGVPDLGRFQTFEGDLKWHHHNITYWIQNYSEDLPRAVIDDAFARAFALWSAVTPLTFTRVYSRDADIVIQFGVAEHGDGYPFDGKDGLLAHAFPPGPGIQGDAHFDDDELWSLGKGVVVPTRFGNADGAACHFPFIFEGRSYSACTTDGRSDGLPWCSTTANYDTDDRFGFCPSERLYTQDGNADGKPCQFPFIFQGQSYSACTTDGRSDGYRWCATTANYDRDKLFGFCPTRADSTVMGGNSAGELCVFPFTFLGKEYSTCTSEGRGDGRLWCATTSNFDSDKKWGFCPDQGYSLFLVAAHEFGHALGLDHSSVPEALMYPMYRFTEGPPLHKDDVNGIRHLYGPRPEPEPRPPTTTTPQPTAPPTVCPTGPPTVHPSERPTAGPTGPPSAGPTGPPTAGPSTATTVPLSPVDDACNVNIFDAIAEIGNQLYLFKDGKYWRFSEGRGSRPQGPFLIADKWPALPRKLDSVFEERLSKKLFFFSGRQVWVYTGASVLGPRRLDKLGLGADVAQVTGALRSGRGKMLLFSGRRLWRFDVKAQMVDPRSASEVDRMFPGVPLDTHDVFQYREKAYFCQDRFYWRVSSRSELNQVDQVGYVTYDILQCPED
For data set [4], the target named is T4, Matrix metalloproteinase-14 (Homo sapiens, UniProt P50281). As to the kind of experiment: Inhibition of MMP-14 (unknown origin) using Mca-Pro-Leu-Gly-Leu-Dpa-Ala-Arg-NH2 as substrate preincubated for 30 mins followed by substrate addition for 2 to 4 hrs by fluorimetric assay.
In data set [5] the target is T1, Interstitial collagenase. The experiment in a line: Inhibition of recombinant human MMP-1 using peptide substrate by ELISA.
Data set [6] addresses T5, 72 kDa type IV collagenase (Homo sapiens, UniProt P08253). The experiment in a line: Inhibition of recombinant human MMP-2 using peptide substrate by ELISA.
Data set [7] has as its target T6, Stromelysin-1 (Homo sapiens, UniProt P08254). The experiment in a line: Inhibition of recombinant human MMP-3 using peptide substrate by ELISA. For orientation: ELISA stands for enzyme-linked immunosorbent assay.
For data set [8], the target named is T2, Neutrophil collagenase. As to the kind of experiment: Inhibition of recombinant human MMP-8 using peptide substrate by ELISA.
Data set [9] concerns the target T3, Matrix metalloproteinase-9. The experiment in a line: Inhibition of recombinant human MMP-9 using peptide substrate by ELISA.
In data set [10] the target is T7, Macrophage metalloelastase (Homo sapiens, UniProt P39900). The experiment in a line: Inhibition of recombinant human MMP-12 using peptide substrate by ELISA.
T7 sequence (P39900 whole entry): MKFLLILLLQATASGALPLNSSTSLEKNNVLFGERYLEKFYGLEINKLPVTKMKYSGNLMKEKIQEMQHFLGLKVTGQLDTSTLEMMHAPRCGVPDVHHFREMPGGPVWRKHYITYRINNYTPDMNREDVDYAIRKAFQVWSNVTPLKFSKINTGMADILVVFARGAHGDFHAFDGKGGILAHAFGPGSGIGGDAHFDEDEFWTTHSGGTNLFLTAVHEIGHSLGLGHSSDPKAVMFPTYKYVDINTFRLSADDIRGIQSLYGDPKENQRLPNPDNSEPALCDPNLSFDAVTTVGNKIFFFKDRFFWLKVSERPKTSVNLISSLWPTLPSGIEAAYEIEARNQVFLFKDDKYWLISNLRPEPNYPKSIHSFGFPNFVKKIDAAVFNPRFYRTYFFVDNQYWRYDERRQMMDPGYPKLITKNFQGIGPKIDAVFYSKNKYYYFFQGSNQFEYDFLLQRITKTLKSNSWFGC
Data set [11] concerns the target T8, Collagenase 3 (Homo sapiens, UniProt P45452). As to the kind of experiment: Inhibition of recombinant human MMP-13 using peptide substrate by ELISA.
The nature of data set [12]: Inhibition of recombinant human TACE using peptide substrate by ELISA.
Data set [13] concerns B16-F10. The experiment in a line: Inhibition of cell invasion in mouse B16-F10 cells at 100 uM by Matrigel invasion assay. Type of data set: functional.
Data set [14] is described as follows: Half life in Sprague-Dawley rats at 50 mg/kg, iv. Type of data set: ADME, organism-based. The note with it: rat, in vivo.
A short description of data set [15]: Half life in Sprague-Dawley rats at 150 mg/kg, po. The format is ADME, organism-based. The following applies: rat, in vivo.
A short description of data set [16]: Half life in Sprague-Dawley rats at 150 mg/kg, ip. The following applies: rat, in vivo. Type of data set: ADME, organism-based.
The test system of data set [17] is B16-F10. The experiment in a line: Antimetastatic activity in mouse B16-F10 xenografted C57BL mouse melanoma model assessed as reduction in metastasis loci at 12.5 to 50 mg/kg, ip. The format is functional. Also on record: scale not given: the % may be the effect or the level left. The following applies: dose 12.5-50 mg/kg.
The subject of data set [18] is Mus musculus. The experiment in a line: Antitumor activity against SCID mouse with human tumor cell orthotopic implantation assessed as reduction in tumor growth at 50 mg/kg, ip for 6 weeks. The format is functional. Also on record: scale not given: the % may be the effect or the level left.
Data set [19] deals with Mus musculus. The experiment in a line: Antimetastatic activity in SCID mouse with human tumor cell orthotopic implantation assessed as reduction in tumor metastasis at 50 mg/kg, ip for 6 weeks. Type of data set: functional. Also on record: scale not given: the % may be the effect or the level left.
Data set [20] can be described thus: Inhibition of brain damage in C57BL/6J mouse traumatic brain injury model at 25 mg/kg, ip for 7 days by cresyl violet-staining based histopathological analysis. Type of data set: functional. The note with it: 168 h, time 7 day.
Data set [21] has as its target T1, Interstitial collagenase. The experiment in a line: Inhibition of MMP-1 (unknown origin).
The target of data set [22] is T6, Stromelysin-1. The experiment in a line: Inhibition of MMP-3 (unknown origin).
The target in the next data set is T9, Matrilysin (Homo sapiens, UniProt P09237).
T9 sequence (P09237 whole entry): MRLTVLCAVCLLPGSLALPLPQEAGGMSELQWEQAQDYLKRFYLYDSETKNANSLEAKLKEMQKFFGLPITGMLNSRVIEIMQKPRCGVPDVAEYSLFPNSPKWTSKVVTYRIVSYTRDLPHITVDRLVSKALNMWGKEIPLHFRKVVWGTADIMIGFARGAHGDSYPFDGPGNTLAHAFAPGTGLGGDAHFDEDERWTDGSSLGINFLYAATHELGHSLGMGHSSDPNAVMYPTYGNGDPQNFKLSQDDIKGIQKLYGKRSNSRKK
The experiment in a line: Inhibition of MMP-7 (unknown origin).

Data set [23] addresses T2, Neutrophil collagenase. The experiment in a line: Inhibition of MMP-8 (unknown origin).
Data set [24] has as its target T7, Macrophage metalloelastase. The experiment in a line: Inhibition of MMP-12 (unknown origin).
Data set [25] deals with T8, Collagenase 3.
Description: Inhibition of MMP-13 (unknown origin)
Data set [26] deals with T4, Matrix metalloproteinase-14. The experiment in a line: Inhibition of MMP-14 (unknown origin).
A short description of data set [27]: Aqueous solubility of compound by UV spectroscopy. The format is physicochemical.
For another data set, the system named is HT-1080. As to the kind of experiment: Inhibition of cell invasion in human HT-1080 for 22 hrs by CyQuantGR dye based fluorometric analysis. Type of data set: functional.
The target in data set [28] is T5, 72 kDa type IV collagenase. As to the kind of experiment: Inhibition of MMP-2 (unknown origin) catalytic activity using Ac-PLG-[2-mercapto-4-methylpentanoyl]-LG-OC2H5 as substrate and measured upto 30 mins by microplate reader analysis.
For data set [29], the target named is T3, Matrix metalloproteinase-9. As to the kind of experiment: Inhibition of MMP-9 (unknown origin) catalytic activity using Ac-PLG-[2-mercapto-4-methylpentanoyl]-LG-OC2H5 as substrate and measured upto 30 mins by microplate reader analysis.
The target in the next data set is Stromelysin-2 (Homo sapiens, UniProt P09238). As to the kind of experiment: Inhibition of MMP-10 (unknown origin).
Sequence of Stromelysin-2 (P09238 whole entry): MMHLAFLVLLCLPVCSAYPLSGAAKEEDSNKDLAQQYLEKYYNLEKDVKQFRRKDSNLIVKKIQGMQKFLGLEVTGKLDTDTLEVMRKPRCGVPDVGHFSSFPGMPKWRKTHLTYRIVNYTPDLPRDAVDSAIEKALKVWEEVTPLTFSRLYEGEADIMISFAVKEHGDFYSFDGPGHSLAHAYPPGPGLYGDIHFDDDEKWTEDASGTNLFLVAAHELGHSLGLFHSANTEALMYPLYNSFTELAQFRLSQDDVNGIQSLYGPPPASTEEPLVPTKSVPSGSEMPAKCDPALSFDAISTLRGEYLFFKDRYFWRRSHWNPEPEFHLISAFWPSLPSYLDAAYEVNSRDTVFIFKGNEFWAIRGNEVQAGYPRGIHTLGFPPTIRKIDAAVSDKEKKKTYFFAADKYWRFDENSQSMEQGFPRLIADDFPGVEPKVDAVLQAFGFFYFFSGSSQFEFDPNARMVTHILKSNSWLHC
Data set [30] is described as follows: Half life in Sprague-Dawley rats at 33 mg/kg, sc. The format is ADME, organism-based. The following applies: rat, in vivo.
Data set [31] is described as follows: AUC in Sprague-Dawley rats at 33 mg/kg, sc. Type of data set: ADME, organism-based. Also on record: dose 33 mg/kg, route sc. The note with it: rat, in vivo.
Data set [32] is described as follows: Half life in Sprague-Dawley rat at 33 mg/kg, po. Type of data set: ADME, organism-based. The following applies: in vivo.
Data set [33] in a line: AUC in Sprague-Dawley rats at 33 mg/kg, po. Type of data set: ADME, organism-based. Also on record: dose 33 mg/kg, route po. The note with it: rat, in vivo.

≈ marks a conversion by molar mass, not a printed value. Bounds are passed on as bounds.

For orientation: Ki means the equilibrium dissociation constant of an inhibitor or competing ligand from its target. Usually IC50 stands for the midpoint of a concentration-inhibition curve. Usually inhibition stands for the drop in the measured response relative to a control, in per cent. The term half-life denotes how long it takes for the measured level to halve. In general, inhibition in vivo refers to the change of the read-out against control, counted positive when it falls. One may read the solubility as the dissolved amount per volume that the medium holds. A word on the AUC: it is the area under the concentration-time curve, a measure of exposure.

T5 sequence (P08253 whole entry): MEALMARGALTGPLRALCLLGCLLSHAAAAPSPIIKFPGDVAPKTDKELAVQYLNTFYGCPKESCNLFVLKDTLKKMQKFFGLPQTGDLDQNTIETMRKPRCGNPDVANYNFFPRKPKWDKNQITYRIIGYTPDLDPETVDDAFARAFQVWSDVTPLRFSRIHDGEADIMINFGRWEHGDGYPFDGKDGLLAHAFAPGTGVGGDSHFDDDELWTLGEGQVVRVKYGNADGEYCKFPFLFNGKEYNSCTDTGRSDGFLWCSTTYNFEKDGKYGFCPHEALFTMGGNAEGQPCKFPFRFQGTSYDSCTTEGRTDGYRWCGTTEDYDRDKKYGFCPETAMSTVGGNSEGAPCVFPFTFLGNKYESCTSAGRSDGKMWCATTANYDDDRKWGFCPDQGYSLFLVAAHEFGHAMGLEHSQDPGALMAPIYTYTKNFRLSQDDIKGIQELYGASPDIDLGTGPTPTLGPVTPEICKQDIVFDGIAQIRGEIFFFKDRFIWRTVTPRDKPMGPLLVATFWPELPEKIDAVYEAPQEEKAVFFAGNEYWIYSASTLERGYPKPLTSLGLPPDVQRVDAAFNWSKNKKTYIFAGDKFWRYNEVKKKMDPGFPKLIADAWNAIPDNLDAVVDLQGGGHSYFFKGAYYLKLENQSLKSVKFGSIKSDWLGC
T6 sequence (P08254 whole entry): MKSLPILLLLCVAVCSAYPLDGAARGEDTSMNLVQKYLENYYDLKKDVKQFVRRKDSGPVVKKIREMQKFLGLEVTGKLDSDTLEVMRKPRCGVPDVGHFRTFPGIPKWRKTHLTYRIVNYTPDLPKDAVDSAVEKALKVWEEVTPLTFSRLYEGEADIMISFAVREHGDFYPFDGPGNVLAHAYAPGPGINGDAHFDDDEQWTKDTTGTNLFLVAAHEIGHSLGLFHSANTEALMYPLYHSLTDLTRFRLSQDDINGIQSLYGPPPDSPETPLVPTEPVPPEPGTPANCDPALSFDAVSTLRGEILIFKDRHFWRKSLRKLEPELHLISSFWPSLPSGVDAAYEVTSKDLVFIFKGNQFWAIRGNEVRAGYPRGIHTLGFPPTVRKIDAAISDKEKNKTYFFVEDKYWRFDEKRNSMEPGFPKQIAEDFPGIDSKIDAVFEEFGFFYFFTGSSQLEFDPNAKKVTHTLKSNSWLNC

Take `C=C[C@@H]1OC(Cc2ccccc2)=N[C@H]1CO`: the Ki at Interstitial collagenase [1] was above 500000 nM.

With `O=P(O)(O)C(NS(=O)(=O)c1ccc(-c2ccc(Cl)cc2)cc1)P(=O)(O)O`, the IC50 against Neutrophil collagenase [2] is 320 nM; in data set [3], above 1000 nM; in [4], above 1000 nM.

As to `NC1CCCCC1NC(=O)P(=O)(O)O` (stereo unspecified), the IC50 at Interstitial collagenase [5] was above 100 nM; in [6], 4 nM; on Stromelysin-1 [7], above 100 nM; at Neutrophil collagenase [8], above 100 nM; in data set [9], 20 nM; in data set [10] it was above 100 nM. For the same compound, the IC50 (at Collagenase 3 [11]; in data set [12]) was above 100 nM in each case. The compound further gave an inhibition at 100 µM with B16-F10 [13] of 90%. Moreover, the half-life turned out to be 0.313 h in data set [14], 2.1 h in data set [15] and 1.8 h in data set [16]. The Activity with B16-F10 [17] came out at 50%; with Mus musculus [18], 60%; in the data set on Mus musculus [19], 90%.

In turn, `O=S(=O)(CC1CS1)c1ccc(Oc2ccccc2)cc1` (stereo unspecified) showed an inhibition in vivo at 25 mg/kg in data set [20] of 14%.

For `CN(C)c1ccc(-c2cn(-c3ccc(S(=O)(=O)C4(C(=O)NO)CCOCC4)cc3)nn2)cc1`, the IC50 against Interstitial collagenase [21] is above 1000 nM; on Stromelysin-1 [22], 50.5 nM; at Matrilysin it was 825 nM; against Neutrophil collagenase [23], 202 nM; in data set [24] it was 4.8 nM; at Collagenase 3 [25], 3.2 nM. Besides, the IC50 in data set [26] is 286 nM; in data set [28], 1.7 nM; in data set [29] it was 43.9 nM; against Stromelysin-2, 44.5 nM. In addition, the concentration in solution in data set [27] (solubility) came to 996 µg/mL (≈ 2110 µM). Further, the “inhibition (INH)” value in the data set on HT-1080 is listed as 37%.

On to `O=C(NCCCCCNS(=O)(=O)c1ccc(Oc2ccccc2)cc1)P(=O)(O)O`, for which the IC50 in [6] was 4 nM; in data set [9], above 100 nM; in data set [10], above 80 nM; at Collagenase 3 [11], above 60 nM; in data set [12], above 100 nM. The values for the half-life in data set [30] and in data set [32] were 9.3 h and 10.5 h, respectively. Also, the AUC in data set [31] was 78000 ng·h/mL; in [33], 6800 ng·h/mL.

The values above are taken from ChEMBL document CHEMBL5113513, “Selective Inhibitors of Medium-Size S1' Pocket Matrix Metalloproteinases: A Stepping Stone of Future Drug Discovery” (J Med Chem, 2022).
